The record followed here is US6376490B1, “Quinoxalinediones” (Pfizer Inc, priority 1997, dated 2002).

Counter-ions that a name gives are not always drawn. A value given as a limit tells only on which side of the number the result lay.

Usually IC50 stands for the point on the concentration scale where inhibition reaches its midpoint. As a reminder, the melting point is the temperature of the solid-liquid transition.

The target in one data set is T1, glycine site of the NMDA receptor (Rattus norvegicus, UniProt P35439).
T1 construct: from tissue; host or cells: rat brain membranes
In words: Displacement of [3H]-L-689,560 from rat brain membranes (NMDA glycine site binding). The settings on record: [3H]-L-689,560 method, tris-acetate buffer pH 7.4, 90 minutes, read-out: IC50 (nM), binding affinity for the glycine site of the NMDA receptor. The protocol:
J. Pharm., 104, 74 (1991).
The binding affinities of a selection of the compounds of the Examples for the glycine site of the NMDA receptor were measured using the [^3H]-L-689,560 method described on page 20 of the description.
With `Cn1ncnc1-c1c(Cl)c(Cl)cc2[nH]c(=O)c(=O)[nH]c12` [Example 20], the IC50 amounted to 19 nM.
Still for that read-out and setting: the figure for `Cc1nnc(-c2ccccc2)n1-c1c(Cl)c(Cl)cc2[nH]c(=O)c(=O)[nH]c12` [Example 73] is 4 nM.

Test system in a further data set: not given
Experiment: not given
Settings: not given
With `Cc1nnc(-c2ccccc2)n1-c1c(Cl)c(Cl)cc2[nH]c(=O)c(=O)[nH]c12` (as salt: HCl) (hydrate or solvate) [Example 73], the melting point was in the range of 274 to 276 °C.
The same measure, in the same setting: the figure for `O=C(O)Cn1nnnc1-c1c(Cl)c(Cl)cc2[nH]c(=O)c(=O)[nH]c12` (hydrate or solvate) [Example 8, 6,7-dichloro-5-(1-carboxymethyltetrazol-5-yl)-2,3(1H,4H)-quinoxalinedione] is 286 to 287 °C.
On the same count and under the same terms, the figure for `Cn1ncnc1-c1c(Cl)c(Cl)cc2[nH]c(=O)c(=O)[nH]c12` (hydrate or solvate) [Example 20] is greater than 300 °C; for `O=c1[nH]c2cc(Cl)c(Cl)c(-c3ccncc3)c2[nH]c1=O` [Example 1, 6,7-Dichloro-5-(4-pyridyl)-2,3(1H,4H)-quinoxalinedione] it is greater than 300 °C.
Compound `COC(=O)Cn1nnnc1-c1c(Cl)c(Cl)cc2[nH]c(=O)c(=O)[nH]c12` [Example 108, 6,7-Dichloro-5-(1-methoxycarbonylmethyltetrazol-5-yl)-2,3(1H,4H)-quinoxalinedione] gave a melting point of 281 to 283 °C.
Same read-out and setting: as for `COCc1nnc(-c2cccnc2)n1-c1c(Cl)c(C)cc2[nH]c(=O)c(=O)[nH]c12` [Example 109, 6-Chloro-7-methyl-5-[5-methoxymethyl-3-(3-pyridyl)-4H-1,2,4-triazol-4-yl]-2,3(1H,4H)-quinoxalinedione], the figure is 229 to 231 °C; as for `COCc1nnc(-c2cccnc2)n1-c1c(C)c(Cl)cc2[nH]c(=O)c(=O)[nH]c12` [Example 110, 7-Chloro-6-methyl-5-[5-methoxymethyl-3-(3-pyridyl)-4H-1,2,4-triazol-4-yl]-2,3(1H,4H)-quinoxalinedione], greater than 300 °C.
